Experiments:
[1] = Liquid, Closed cell (Static) method
[2] = excess molar enthalpy (molar enthalpy of mixing); xn = mol fraction of the nth substance listed; conditions: 323.15 K, 101 kPa, Liquid, Flow calorimetry

CCCC(=O)O [butanoic acid]
[1]
Conditions	vapor or sublimation pressure [kPa]
273.15 K	0.0137
283.15 K	0.0324
293.15 K	0.0725
293.29 K	0.072
298.15 K	0.1063
298.25 K	0.1052
303.15 K	0.1541
303.28 K	0.1545
313.15 K	0.3128
313.22 K	0.3155
323.15 K	0.6084
323.2 K	0.6183
333.15 K	1.138
333.18 K	1.153
343.15 K	2.055
343.18 K	2.073
353.1 K	3.582
353.15 K	3.593
363.08 K	5.973
363.15 K	6.095

CCCC(=O)O [butanoic acid] + Cc1ccccc1
[2]
Conditions	excess molar enthalpy [kcal/mol]
x1 = 0.0289	0.00659
x1 = 0.0576	0.00663
x1 = 0.1144	0.00368
x1 = 0.1702	-0.000361
x1 = 0.2251	-0.00433
x1 = 0.2792	-0.00731
x1 = 0.3325	-0.0104
x1 = 0.3849	-0.0129
x1 = 0.4366	-0.0149
x1 = 0.4874	-0.0163
x1 = 0.5375	-0.0174
x1 = 0.5869	-0.0176
x1 = 0.6355	-0.0169
x1 = 0.6834	-0.0161
x1 = 0.7306	-0.0147
x1 = 0.7771	-0.013
x1 = 0.823	-0.0107
x1 = 0.8682	-0.00798
x1 = 0.9127	-0.00545
x1 = 0.9567	-0.00251
x1 = 0.9784	-0.00114

Cc1ccccc1 [toluene]
[1]
Conditions	vapor or sublimation pressure [kPa]
253.83 K	0.2392
263.64 K	0.4837
273.15 K	0.9082
273.47 K	0.9254
283.15 K	1.666
283.32 K	1.68
293.15 K	2.911
293.24 K	2.925
293.26 K	2.925
298.15 K	3.785
298.25 K	3.803
303.15 K	4.872
303.23 K	4.894
313.15 K	7.848
313.19 K	7.872
313.22 K	7.874
323.15 K	12.22
323.22 K	12.24
333.15 K	18.45
333.2 K	18.57
343.15 K	27.1
343.16 K	27.2
353.13 K	38.84
353.15 K	38.84
363.08 K	54.13
363.15 K	54.42

— the NIST ThermoML archive (doi:10.1021/je800888n)
